Consider three compounds from patent publication US7769423B2 (Duke University, priority 2002, dated 2010).

In data set [1] the test system is fibrosarcomas implanted in the flank of Fisher 344 rats. In words: In vivo MRI signal enhancement and signal intensity ratio (SIR) in rats bearing flank fibrosarcomas, catheter hyperthermia. As for the experimental part:
Fibrosarcocomas were transplanted in the flank of fisher 344 rats and allowed to grow to 17-19 mm in diameter. Rats were anesthetized with pentobarbital (source/amount) and a 16 gauge catheter was placed through the center of the tumor. Heated water (56° C., 1.8 ml/s) was passed through the catheter to provided hyperthermia. During MRI scans, the heating water was doped with 0.25 M MnSO4 to prevent flow image artifacts. Gradient recalled echo was used with a Tr of 23 ms, Te of 1.4 ms, and flip angles of 5, 15, 30, 40, 50, 60 degrees for the initial T1 weighted image. Subsequent drug uptake scans were performed at a flip angle of 33°. 3D volume images, 12 slices 1 mm thick, were taken with a field of view of 6 cm with a pixel size of 234×234 μm. Four and signal image averaging was used for liposome and Gd-DTPA experiments yielding scan times of 1 min, 45 sec and 30 sec respectively.
1NEX image averaging was used for the first twenty minutes of liposome or Gd uptake. Subsequent images were taken at 4NEX for the remainder of the experiment (90-120 minutes).
The liposome formulations were studied in fibrosarcomas implanted in the flank of Fisher 344 rats. The center of the tumor was heated using a catheter through which hot was water circulated. […] Liposomes were then administered intravenously, followed by MR imaging.
In vivo drug relative concentrations were performed by signal intensity image analysis over regions of interest (ROI) within heated tumors. The white boxes present in FIGS. 2A, 2B and 2C indicate these ROIs. […] Muscle in the non-tumor bearing leg of the animal was used as a non-heated, normal tissue control.

The conditions of data set [2]: at physiological temperatures; Unger 1993; cited from earlier work.
For data set [3] the following is noted: cited from earlier work.
The subject of data set [4] is fibrosarcoma (FSA-1). In words: Antitumor effect: time for tumors to reach five times the volume on the day of treatment. The data set is classed as in vivo, rat.
Experimental: Tumor model. […] The fibrosarcoma was transplanted subcutaneously in the flanks of 8-week-old female Fischer 344 rats (Charles River Laboratories, Wilmington, Mass., U.S.A.) under anesthesia using intraperitoneal ketamine (9 mg/kg body weight) and xylazine (10 mg/kg body weight). Tumors were allowed to grow for approximately 2 weeks to a diameter of 10-12 mm before treatment.
Each group of rats (except the control group) received an equivalent dose of 5 mg doxorubicin/kg body weight by intravenous injection and/or 1 hour of hyperthermia. Local hyperthermia was delivered by means of an 18-gauge catheter that was placed through the center of the tumor and through which heated water (˜50° C., 1.8 mL/s) was passed.
The remaining 6-7 rats in each treatment group were included in the survival analysis. […] Final images were taken after tumors cooled to room temperature. […] After therapy, the rats were monitored as they recovered from anesthesia. Tumor volumes were measured three times per week for 60 days or until the tumor volume reached five times the volume on the day of treatment. At these endpoints, the rats were killed by carbon dioxide asphyxiation. […] The five-times-the-initial-volume cutpoint was chosen based on guidelines from the institutional animal care and use committee. No rats were killed before the specified endpoints were reached.
Descriptive summary statistics are expressed as mean values with 95% confidence intervals, except for the time-to-five-times-tumor-volume data, which are expressed as median values with 95% confidence intervals. To avoid assuming a normal distribution, nonparametric or semi-parametric statistical methods were used. Group comparisons were conducted with the Kruskal-Wallis test for more than two groups and the Wilcoxon test for between-group differences. For the antitumor efficacy data, the primary endpoint (time to reach five times the original tumor volume) was analyzed by the Kaplan-Meier product-limit method, using the Wilcoxon rank test for between-group differences. […]
Data set [5] can be described thus: In vitro MRI T1 relaxivity measurements as a function of temperature and concentration. The data set is classed as physicochemical. The conditions noted are these: linear regression, in vitro samples, 2-T magnet. How it is done: Three control stock solutions of manganese sulfate (MnSO4.H2O), free DOX and MnSO4.H2O in a molar ratio of 0.902:1 (DOX:Mn), and MnSO4.H2O with thermally sensitive liposomes that were formed without the presence of MnSO4.H2O. These solutions, along with liposome solutions, were then diluted to concentrations from 0.25-8 mM. The solutions were placed in […] NMR tubes cut to a three-inch length.
All MRI experiments were performed at the Center for In vivo Microscopy at Duke University in a 2-T 30-cm bore diameter magnet (Signa, G.E. Medical Systems, Milwaukee, Wis.). […] Each experiment had six to eight sample tubes, which were contained within an exposed sample holder, and placed inside a 3.81 cm birdcage coil providing RF excitation. […]
Images that were obtained were analyzed by selecting a region of interest and measuring average intensity for each sample dilution. […]
To quantify the concentration of drug in vivo using MRI, in vitro experiments were performed to determine the concentration- and temperature-dependence of T1 shortening. These experiments measured signal intensity resulting from proton spin realignment to the bulk magnetic field after excitation from repetitive radio frequency pulses. […] MnSO4 liposome-DOX formulation measured over a range of drug concentrations (T=29.9° C.). […]

For `O=C([O-])CN(CCN(CC(=O)[O-])CC(=O)[O-])CCN(CC(=O)[O-])CC(=O)[O-].[Gd+3]` [Gd-DTPA], in data set [1] (enhanced tumor region), the “time to reach SIR plateau in tumor-enhancing region” value is no more than 10 min. Also, the “femoral vessel SIR value reached” value in data set [1] (femoral vein, normalized to non-heated muscle) is reported as 2.0. The “time at which femoral vessel SIR value was reached” value in data set [1] (femoral vein, post injection) worked out at 10 min. Further, the “MR signal enhancement pattern” value in data set [1] (without hyperthermia (HT)) is listed as “Enhancement occurs in all tissues with a high degree of non-uniformity in the tumor”. Also, the relaxivity result in data set [2] is on record as “approximately 44.5 (mM·sec·° C.)^−1”. Further, in data set [3] (in about 6 hours), the “fraction excreted in urine” value is 83%±14%. Moreover, the mean elimination half-life entry in data set [3] (in vivo) is given as “about 0.2±0.13 hours”.
In the case of `COc1cccc2c1C(=O)c1c(O)c3c(c(O)c1C2=O)C[C@@](O)(C(=O)CO)C[C@@H]3O[C@H]1C[C@H](N)[C@H](O)[C@H](C)O1` [free doxorubicin, doxorubicin], the “tumor growth time / growth delay” value is on record as “statistically significantly longer tumor growth times than the saline control” in data set [4] (alone, without hyperthermia) and “statistically significantly longer tumor growth times than the saline control” in data set [4] (with hyperthermia). Moreover, the “complete tumor regression upon censoring at 60 days” value in data set [4] (during / plus hyperthermia) is listed as “one of the six rats”.
For the compound `O=S(=O)([O-])[O-].[Mn+2]` [MnSO4, manganese sulfate], in data set [5], the “intercept of relaxivity as a function of temperature (intercept±S.E.)” value came out at 7.28 ± 0.12 mM/s and the “slope of relaxivity as a function of temperature (slope±S.E.)” value is on record as −0.082±0.003 (mM·sec·° C.)^−1.
